PubChem BioAssay (NCI)
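These data come from cells grown in 96-well plates and exposed to compound for 48 hours at five concentrations. Here, GI50 denotes the concentration required for 50% inhibition of growth. TGI is the concentration that stops growth completely.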

Experiments:
Experiment in all cases: growth of human tumour cells (NCI), 48 h; in the data active = GI50 below about 0.43 µM; inactive = the rest
A498 renal = tested on: A498 renal
SF-268 CNS = tested on: SF-268 CNS
UO-31 renal = tested on: UO-31 renal
SF-295 CNS = tested on: SF-295 CNS
HT29 colon = tested on: HT29 colon
RPMI-8226 leukemia = tested on: RPMI-8226 leukemia
OVCAR-8 ovarian = tested on: OVCAR-8 ovarian
HOP-92 NSCLC = tested on: HOP-92 NSCLC
EKVX NSCLC = tested on: EKVX NSCLC
CCRF-CEM leukemia = tested on: CCRF-CEM leukemia
NCI-H226 lung = tested on: NCI-H226 lung
NCI-H23 lung = tested on: NCI-H23 lung
CAKI-1 renal = tested on: CAKI-1 renal
COLO 205 colon = tested on: COLO 205 colon
UACC-257 melanoma = tested on: UACC-257 melanoma
M14 melanoma = tested on: M14 melanoma
HCC-2998 colon = tested on: HCC-2998 colon
SK-MEL-5 melanoma = tested on: SK-MEL-5 melanoma
HOP-62 NSCLC = tested on: HOP-62 NSCLC
NCI/ADR-RES ovarian = tested on: NCI/ADR-RES ovarian
KM12 colon = tested on: KM12 colon
PC-3 prostate = tested on: PC-3 prostate
K-562 leukemia = tested on: K-562 leukemia
MALME-3M melanoma = tested on: MALME-3M melanoma
SK-MEL-28 melanoma = tested on: SK-MEL-28 melanoma
IGROV1 ovarian = tested on: IGROV1 ovarian
MOLT-4 leukemia = tested on: MOLT-4 leukemia
SNB-19 CNS = tested on: SNB-19 CNS
DU-145 prostate = tested on: DU-145 prostate
TK-10 renal = tested on: TK-10 renal
HL-60(TB) leukemia = tested on: HL-60(TB) leukemia
SW-620 colon = tested on: SW-620 colon
SK-OV-3 ovarian = tested on: SK-OV-3 ovarian
NCI-H522 lung = tested on: NCI-H522 lung
MDA-MB-231 breast = tested on: MDA-MB-231 breast
SN12C renal = tested on: SN12C renal
OVCAR-3 ovarian = tested on: OVCAR-3 ovarian
U251 CNS = tested on: U251 CNS
HCT-116 colon = tested on: HCT-116 colon
RXF 393 renal = tested on: RXF 393 renal
ACHN renal = tested on: ACHN renal
HS 578T breast = tested on: HS 578T breast
HCT-15 colon = tested on: HCT-15 colon
OVCAR-4 ovarian = tested on: OVCAR-4 ovarian
A549 NSCLC = tested on: A549 NSCLC
SF-539 CNS = tested on: SF-539 CNS
NCI-H460 lung = tested on: NCI-H460 lung
786-0 renal = tested on: 786-0 renal
MCF7 breast = tested on: MCF7 breast
LOX IMVI melanoma = tested on: LOX IMVI melanoma
UACC-62 melanoma = tested on: UACC-62 melanoma
T-47D breast = tested on: T-47D breast
OVCAR-5 ovarian = tested on: OVCAR-5 ovarian
BT-549 breast = tested on: BT-549 breast
SR leukemia = tested on: SR leukemia
SNB-75 CNS = tested on: SNB-75 CNS
MDA-MB-435 = tested on: MDA-MB-435
SK-MEL-2 melanoma = tested on: SK-MEL-2 melanoma

CCCSc1ccc2nc(NC(=O)OC)[nH]c2c1
> 100000 nM: TGI (SF-268 CNS) | TGI (UO-31 renal) | TGI (RPMI-8226 leukemia) | TGI (OVCAR-8 ovarian) | TGI (HOP-92 NSCLC) | TGI (EKVX NSCLC) | TGI (CCRF-CEM leukemia) | TGI (NCI-H23 lung) | TGI (CAKI-1 renal) | TGI (UACC-257 melanoma) | TGI (SK-MEL-5 melanoma) | TGI (KM12 colon) | TGI (PC-3 prostate) | TGI (K-562 leukemia) | TGI (MALME-3M melanoma) | TGI (SK-MEL-28 melanoma) | TGI (IGROV1 ovarian) | TGI (MOLT-4 leukemia) | TGI (SNB-19 CNS) | TGI (TK-10 renal) | TGI (SW-620 colon) | TGI (MDA-MB-231 breast) | TGI (SN12C renal) | TGI (U251 CNS) | TGI (HCT-116 colon) | TGI (ACHN renal) | TGI (HS 578T breast) | TGI (HCT-15 colon) | TGI (OVCAR-4 ovarian) | TGI (A549 NSCLC) | TGI (NCI-H460 lung) | TGI (786-0 renal) | TGI (MCF7 breast) | TGI (LOX IMVI melanoma) | TGI (UACC-62 melanoma) | TGI (T-47D breast) | TGI (OVCAR-5 ovarian) | TGI (BT-549 breast) | TGI (SK-MEL-2 melanoma)
> 24400 nM: TGI (SF-539 CNS)
inactive: GI50 (SF-268 CNS) 1340 nM | GI50 (UO-31 renal) 890 nM | GI50 (OVCAR-8 ovarian) 486 nM | GI50 (HOP-92 NSCLC) 712 nM | GI50 (EKVX NSCLC) > 37000 nM | GI50 (NCI-H226 lung) 456 nM | GI50 (NCI-H23 lung) 585 nM | GI50 (HCC-2998 colon) 1010 nM | GI50 (SK-MEL-28 melanoma) 952 nM | GI50 (IGROV1 ovarian) 1370 nM | GI50 (MOLT-4 leukemia) 547 nM | GI50 (SNB-19 CNS) 525 nM | GI50 (TK-10 renal) > 100000 nM | GI50 (MDA-MB-231 breast) 1060 nM | GI50 (SN12C renal) 823 nM | GI50 (ACHN renal) 2640 nM | GI50 (OVCAR-4 ovarian) 792 nM | GI50 (A549 NSCLC) 438 nM | GI50 (786-0 renal) 634 nM | GI50 (LOX IMVI melanoma) 718 nM | GI50 (UACC-62 melanoma) 626 nM | GI50 (OVCAR-5 ovarian) 2080 nM | GI50 (BT-549 breast) 1500 nM | GI50 (SK-MEL-2 melanoma) 538 nM
> 33800 nM: TGI (HCC-2998 colon)
509 nM: TGI (OVCAR-3 ovarian)
> 32800 nM: TGI (SF-295 CNS)
5970 nM: TGI (NCI-H226 lung)
702 nM: TGI (COLO 205 colon)
2910 nM: TGI (SK-OV-3 ovarian)
202 nM: TGI (MDA-MB-435)
> 71500 nM: TGI (DU-145 prostate)
791 nM: TGI (HL-60(TB) leukemia)
5030 nM: TGI (A498 renal)
598 nM: TGI (RXF 393 renal)
666 nM: TGI (NCI-H522 lung)
active: GI50 (A498 renal) 258 nM | GI50 (SF-295 CNS) 290 nM | GI50 (HT29 colon) 235 nM | GI50 (RPMI-8226 leukemia) 378 nM | GI50 (CCRF-CEM leukemia) 276 nM | GI50 (COLO 205 colon) 241 nM | GI50 (M14 melanoma) 260 nM | GI50 (SK-MEL-5 melanoma) 290 nM | GI50 (HOP-62 NSCLC) 380 nM | GI50 (NCI/ADR-RES ovarian) 227 nM | GI50 (KM12 colon) 206 nM | GI50 (PC-3 prostate) 354 nM | GI50 (K-562 leukemia) 76.2 nM | GI50 (MALME-3M melanoma) 425 nM | GI50 (DU-145 prostate) 336 nM | GI50 (HL-60(TB) leukemia) 228 nM | GI50 (SW-620 colon) 223 nM | GI50 (SK-OV-3 ovarian) 285 nM | GI50 (NCI-H522 lung) 202 nM | GI50 (OVCAR-3 ovarian) 196 nM | GI50 (U251 CNS) 411 nM | GI50 (HCT-116 colon) 416 nM | GI50 (RXF 393 renal) 208 nM | GI50 (HS 578T breast) 378 nM | GI50 (HCT-15 colon) 366 nM | GI50 (SF-539 CNS) 323 nM | GI50 (NCI-H460 lung) 342 nM | GI50 (MCF7 breast) 380 nM | GI50 (T-47D breast) 298 nM | GI50 (SR leukemia) 48.2 nM | GI50 (SNB-75 CNS) 143 nM | GI50 (MDA-MB-435) 34.8 nM
> 68700 nM: TGI (HOP-62 NSCLC)
